Assay results: article PMC8991199, “Promiscuity mapping of the S100 protein family using a high-throughput holdup assay” (Scientific Reports, 2022)
Entries after “also recorded” stand apart in the source; their conditions may differ.

What was measured:
Format in all cases: binding
S100A5 = target: T1, S100A5 (Homo sapiens, UniProt P33763); test: direct fluorescence polarization (FP), S100A5; conditions: for Kd: direct FP, S100A5, 50 nM labeled foldamer, 20 mM HEPES pH 7.5, 150 mM NaCl, 1 mM CaCl2, 0.5 mM TCEP, 0.01% Tween20, quadratic fit, mean ± SEM, three technical repeats, threshold 1 mM; for binding to S100A5 in the absence of Ca2+: Fig. 3C middle panels, direct FP in the presence of EDTA
T1 sequence (P33763 1-92): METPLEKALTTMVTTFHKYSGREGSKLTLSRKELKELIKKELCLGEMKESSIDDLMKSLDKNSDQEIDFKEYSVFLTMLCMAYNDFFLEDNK
Procedure: (§1) HTP (and also low-throughput) measurements generally need to be validated by an orthogonal approach to eliminate experimental artifacts. […] This way, we chose WL, IF, WW, YF, IL, VL, TW, RF, RR, TI, TM, and after resynthesizing with a fluorescent label at the C-terminus (Figs. S15–S26, Table S1), the S100ome was tested against the labeled foldamers by direct fluorescence polarization (FP) (Fig. 3A). In this assay, the association of the fluorescently labeled foldamer and the S100 protein of interest is monitored, through the change in polarization of the emitted light by the fluorophore upon the binding event. In direct FP, the presence of the fluorophore might change the binding affinity of some foldamers. […] Nevertheless, we assumed that the fluorophore would affect all foldamers that target the same binding site to the same degree, because the foldamer scaffold is rigid. Defining the threshold of detection at the dissociation constant of 1 mM, we identified 87 interactions between the selected foldamer fragments and the S100ome out of 220 possible interactions (Table 1, Fig. S4-14).
To ensure that foldamer fragments bind to the hydrophobic binding groove of S100 proteins, which opens upon binding of calcium ions, we performed FP experiments on a selected S100 protein, S100A5, in the presence of EDTA and TRTK12, an S100-binding peptide of 12 amino acids. […] Based on the similarity and redundancy among the S100 family, it can be assumed that all S100 proteins bind the members of the H14 foldamer library through their hydrophobic binding pocket in a Ca^2+-dependent manner.
(§2) Briefly, S100 proteins were cloned into a modified pET15b vector with a TEV protease cleavable N-terminal His6-tag and expressed in Escherichia coli BL21 (DE3) cells, followed by Ni^2+-affinity chromatography. For HU assay, S100 proteins were further purified by either hydrophobic interaction chromatography or ion exchange chromatography without the cleavage of the N-terminal His6-tag applying standard conditions. For direct FP measurements, the N-terminal His6-tag was cleaved, and the S100 proteins were purified by hydrophobic interaction chromatography, ion exchange chromatography or size exclusion chromatography. The quality of the recombinant proteins was checked by SDS-PAGE analysis in all cases. The concentration of the recombinant S100 proteins was determined by UV spectrophotometry using the absorbance of Tyr and Trp residues.
(§3) In direct fluorescence polarization assays, S100 proteins were diluted in a buffer containing 50 nM labeled foldamer, 20 mM HEPES pH 7.5, 150 mM NaCl, 1 mM CaCl2, 0.5 mM TCEP and 0.01% Tween20. The dilution series (50 µl) were divided into three technical repeats and transferred (15 µl) to a 384-well microplate. In competitive fluorescence polarization assays, the buffer applied in direct measurements was supplemented with the S100 protein of interest to reach a saturation of 60–80%. This mixture was titrated with the competitor (i.e. the unlabeled peptide). Fluorescence polarization was measured in 8 different S100 concentrations (one of which contained no S100 protein) on a Synergy H4 plate reader using 485 ± 20 nm and 528 ± 20 nm band-pass filters for excitation and emission, respectively. The Kd values were obtained by fitting the data from the FP measurements with the python-based ProFit software using quadratic and competitive binding equation for direct and competitive FP, respectively. The detection threshold was based on two parameters. First, we rejected all fitted dissociation constants above 1 mM.

S100A1 = target: T2, S100A1 (Homo sapiens, UniProt P23297); test: direct fluorescence polarization (FP), S100A1; conditions: S100A1, 50 nM labeled foldamer, 20 mM HEPES pH 7.5, 150 mM NaCl, 1 mM CaCl2, 0.5 mM TCEP, 0.01% Tween20, quadratic fit, mean ± SEM, three technical repeats, threshold 1 mM
T2 sequence (P23297 1-94): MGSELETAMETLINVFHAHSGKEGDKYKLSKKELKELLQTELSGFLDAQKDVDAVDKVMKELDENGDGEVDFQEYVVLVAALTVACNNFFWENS
Source text: HTP (and also low-throughput) measurements generally need to be validated by an orthogonal approach to eliminate experimental artifacts. […] In this assay, the association of the fluorescently labeled foldamer and the S100 protein of interest is monitored, through the change in polarization of the emitted light by the fluorophore upon the binding event. In direct FP, the presence of the fluorophore might change the binding affinity of some foldamers. […] Nevertheless, we assumed that the fluorophore would affect all foldamers that target the same binding site to the same degree, because the foldamer scaffold is rigid.
as §2, §3

S100A14 = target: T3, S100A14 (Homo sapiens, UniProt Q9HCY8); test: direct fluorescence polarization (FP), S100A14; conditions: S100A14, 50 nM labeled foldamer, 20 mM HEPES pH 7.5, 150 mM NaCl, 1 mM CaCl2, 0.5 mM TCEP, 0.01% Tween20, quadratic fit, mean ± SEM, three technical repeats, threshold 1 mM
T3 sequence (Q9HCY8 1-104): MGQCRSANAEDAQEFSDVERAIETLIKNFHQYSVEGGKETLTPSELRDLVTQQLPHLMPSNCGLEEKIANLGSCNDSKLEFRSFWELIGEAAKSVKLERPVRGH
Procedure: as §1, §2, §3

S100G = target: T4, S100G (Homo sapiens, UniProt P29377); test: direct fluorescence polarization (FP), S100G; conditions: 50 nM labeled foldamer, 20 mM HEPES pH 7.5, 150 mM NaCl, 1 mM CaCl2, 0.5 mM TCEP, 0.01% Tween20, quadratic fit, mean ± SEM, three technical repeats, threshold 1 mM
T4 sequence (P29377 2-79): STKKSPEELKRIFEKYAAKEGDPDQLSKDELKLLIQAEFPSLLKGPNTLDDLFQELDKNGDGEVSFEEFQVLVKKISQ
Procedure: as §1, §2, §3

S100A15 = target: T5, S100A15 (Homo sapiens, UniProt Q86SG5); test: direct fluorescence polarization (FP), S100A15; conditions: S100A15, 50 nM labeled foldamer, 20 mM HEPES pH 7.5, 150 mM NaCl, 1 mM CaCl2, 0.5 mM TCEP, 0.01% Tween20, quadratic fit, mean ± SEM, three technical repeats, threshold 1 mM
T5 sequence (Q86SG5 1-101): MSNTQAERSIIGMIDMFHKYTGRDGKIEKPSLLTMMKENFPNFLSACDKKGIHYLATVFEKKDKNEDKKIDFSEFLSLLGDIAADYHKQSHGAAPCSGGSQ
Procedure: as §1, §2, §3

| Kd (S100A5) | Kd (S100A1) | Kd (S100A14) | Kd (S100G) | Kd (S100A15) | Compound | binding to S100A5 in the absence of Ca2+ (S100A5) |
| --- | --- | --- | --- | --- | --- | --- |
| 62 ± 1.4 µM | 330 ± 20 µM | > 1000 µM | > 1000 µM | > 1000 µM | C[C@@H](O)[C@@H](CC(=O)N[C@H]1CCCC[C@@H]1C(=O)N[C@H]1CCCC[C@@H]1C(=O)N[C@H](CC(=O)N[C@H]1CCCC[C@@H]1C(=O)NCC(=O)N[C@@H](CCCCNC(=O)c1ccc2c(c1)C1(OC2=O)c2ccc(O)cc2Oc2cc(O)ccc21)C(N)=O)Cc1c[nH]c2ccccc12)NC(=O)[C@H]1CCCC[C@@H]1N [fTW] |  |
| 204 ± 9.2 µM | > 1000 µM | > 1000 µM | > 1000 µM | > 1000 µM | CSCC[C@@H](CC(=O)N[C@H]1CCCC[C@@H]1C(=O)NCC(=O)N[C@@H](CCCCNC(=O)c1ccc2c(c1)C1(OC2=O)c2ccc(O)cc2Oc2cc(O)ccc21)C(N)=O)NC(=O)[C@H]1CCCC[C@@H]1NC(=O)[C@H]1CCCC[C@@H]1NC(=O)C[C@@H](NC(=O)[C@H]1CCCC[C@@H]1N)[C@@H](C)O [fTM] |  |
| 270 ± 14 µM | > 1000 µM | > 1000 µM | > 1000 µM | > 1000 µM | CC[C@H](C)[C@@H](CC(=O)N[C@H]1CCCC[C@@H]1C(=O)NCC(=O)N[C@@H](CCCCNC(=O)c1ccc2c(c1)C1(OC2=O)c2ccc(O)cc2Oc2cc(O)ccc21)C(N)=O)NC(=O)[C@H]1CCCC[C@@H]1NC(=O)[C@H]1CCCC[C@@H]1NC(=O)C[C@@H](NC(=O)[C@H]1CCCC[C@@H]1N)[C@@H](C)O [fTI] |  |
| 110 ± 5.4 µM | 97 ± 12 µM | > 1000 µM | > 1000 µM | > 1000 µM | CC(C)C[C@@H](CC(=O)N[C@H]1CCCC[C@@H]1C(=O)NCC(=O)N[C@@H](CCCCNC(=O)c1ccc2c(c1)C1(OC2=O)c2ccc(O)cc2Oc2cc(O)ccc21)C(N)=O)NC(=O)[C@H]1CCCC[C@@H]1NC(=O)[C@H]1CCCC[C@@H]1NC(=O)C[C@@H](NC(=O)[C@H]1CCCC[C@@H]1N)C(C)C [fVL] |  |
| 75 ± 3.6 µM |  | > 1000 µM | > 1000 µM | > 1000 µM | CC[C@H](C)[C@@H](CC(=O)N[C@H]1CCCC[C@@H]1C(=O)N[C@H]1CCCC[C@@H]1C(=O)N[C@H](CC(=O)N[C@H]1CCCC[C@@H]1C(=O)NCC(=O)N[C@@H](CCCCNC(=O)c1ccc2c(c1)C1(OC2=O)c2ccc(O)cc2Oc2cc(O)ccc21)C(N)=O)CC(C)C)NC(=O)[C@H]1CCCC[C@@H]1N [fIL] |  |
| 46 ± 1.2 µM | 413 ± 81 µM | > 1000 µM | > 1000 µM | > 1000 µM | N=C(N)NCCC[C@@H](CC(=O)N[C@H]1CCCC[C@@H]1C(=O)N[C@H]1CCCC[C@@H]1C(=O)N[C@H](CC(=O)N[C@H]1CCCC[C@@H]1C(=O)NCC(=O)N[C@@H](CCCCNC(=O)c1ccc2c(c1)C1(OC2=O)c2ccc(O)cc2Oc2cc(O)ccc21)C(N)=O)Cc1ccccc1)NC(=O)[C@H]1CCCC[C@@H]1N [fRF] |  |
| 45 ± 0.81 µM | 280 ± 38 µM | > 1000 µM | > 1000 µM | > 1000 µM | N=C(N)NCCC[C@@H](CC(=O)N[C@H]1CCCC[C@@H]1C(=O)NCC(=O)N[C@@H](CCCCNC(=O)c1ccc2c(c1)C1(OC2=O)c2ccc(O)cc2Oc2cc(O)ccc21)C(N)=O)NC(=O)[C@H]1CCCC[C@@H]1NC(=O)[C@H]1CCCC[C@@H]1NC(=O)C[C@H](CCCNC(=N)N)NC(=O)[C@H]1CCCC[C@@H]1N [fRR] |  |

| Compound | Kd (S100A5) | Kd (S100A1) | Kd (S100A14) | Kd (S100G) | Kd (S100A15) | binding to S100A5 in the absence of Ca2+ (S100A5) |
| --- | --- | --- | --- | --- | --- | --- |
| CC[C@H](C)[C@@H](CC(=O)N[C@H]1CCCC[C@@H]1C(=O)N[C@H]1CCCC[C@@H]1C(=O)N[C@H](CC(=O)N[C@H]1CCCC[C@@H]1C(=O)NCC(=O)N[C@@H](CCCCNC(=O)c1ccc2c(c1)C1(OC2=O)c2ccc(O)cc2Oc2cc(O)ccc21)C(N)=O)Cc1ccccc1)NC(=O)[C@H]1CCCC[C@@H]1N [fIF] | 27 ± 0.53 µM | 210 ± 13 µM | > 1000 µM | > 1000 µM | > 1000 µM | loss of binding event; also recorded: unable to interact |
| NC(=O)[C@H](CCCCNC(=O)c1ccc2c(c1)C1(OC2=O)c2ccc(O)cc2Oc2cc(O)ccc21)NC(=O)CNC(=O)[C@H]1CCCC[C@@H]1NC(=O)C[C@H](Cc1ccccc1)NC(=O)[C@H]1CCCC[C@@H]1NC(=O)[C@H]1CCCC[C@@H]1NC(=O)C[C@H](Cc1ccc(O)cc1)NC(=O)[C@H]1CCCC[C@@H]1N [fYF] | 32 ± 1 µM | 110 ± 9.8 µM | > 1000 µM | > 1000 µM | > 1000 µM |  |
| CC(C)C[C@@H](CC(=O)N[C@H]1CCCC[C@@H]1C(=O)NCC(=O)N[C@@H](CCCCNC(=O)c1ccc2c(c1)C1(OC2=O)c2ccc(O)cc2Oc2cc(O)ccc21)C(N)=O)NC(=O)[C@H]1CCCC[C@@H]1NC(=O)[C@H]1CCCC[C@@H]1NC(=O)C[C@H](Cc1c[nH]c2ccccc12)NC(=O)[C@H]1CCCC[C@@H]1N [fWL] | 14 ± 0.55 µM | 53 ± 5.2 µM | > 1000 µM | > 1000 µM | 39 ± 2.4 µM | loss of binding event; also recorded: unable to interact |
| NC(=O)[C@H](CCCCNC(=O)c1ccc2c(c1)C1(OC2=O)c2ccc(O)cc2Oc2cc(O)ccc21)NC(=O)CNC(=O)[C@H]1CCCC[C@@H]1NC(=O)C[C@H](Cc1c[nH]c2ccccc12)NC(=O)[C@H]1CCCC[C@@H]1NC(=O)[C@H]1CCCC[C@@H]1NC(=O)C[C@H](Cc1c[nH]c2ccccc12)NC(=O)[C@H]1CCCC[C@@H]1N [fWW] | 77 ± 2.8 µM | 110 ± 19 µM | > 1000 µM | > 1000 µM | > 1000 µM |  |
